Each block holds one compound with its values, some of them ahead of it.
Target: T1, LXRβ (Homo sapiens, UniProt P55055)
T1 construct: Co-transfection expression plasmids, comprising full-length LXRα (pCMX-h LXRα[…] or LXRβ (pCMX-hLXRβ)); expressed in transfected cells; host or cells: CV-1 African Green Monkey Kidney Cells
T1 sequence (P55055 1-460): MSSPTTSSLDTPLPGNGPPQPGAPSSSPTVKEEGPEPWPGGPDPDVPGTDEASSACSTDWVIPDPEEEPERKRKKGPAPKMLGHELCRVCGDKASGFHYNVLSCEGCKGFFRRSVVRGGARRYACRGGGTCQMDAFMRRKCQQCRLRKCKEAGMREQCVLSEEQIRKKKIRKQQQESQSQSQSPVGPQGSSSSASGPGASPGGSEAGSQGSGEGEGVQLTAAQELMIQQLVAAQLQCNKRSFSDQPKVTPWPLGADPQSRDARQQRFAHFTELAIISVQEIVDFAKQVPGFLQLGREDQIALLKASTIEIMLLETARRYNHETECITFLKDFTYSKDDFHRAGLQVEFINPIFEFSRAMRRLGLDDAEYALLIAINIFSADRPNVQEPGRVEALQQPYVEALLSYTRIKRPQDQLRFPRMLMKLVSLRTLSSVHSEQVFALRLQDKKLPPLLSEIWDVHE
T1 sequence (P19793 1-462 partner): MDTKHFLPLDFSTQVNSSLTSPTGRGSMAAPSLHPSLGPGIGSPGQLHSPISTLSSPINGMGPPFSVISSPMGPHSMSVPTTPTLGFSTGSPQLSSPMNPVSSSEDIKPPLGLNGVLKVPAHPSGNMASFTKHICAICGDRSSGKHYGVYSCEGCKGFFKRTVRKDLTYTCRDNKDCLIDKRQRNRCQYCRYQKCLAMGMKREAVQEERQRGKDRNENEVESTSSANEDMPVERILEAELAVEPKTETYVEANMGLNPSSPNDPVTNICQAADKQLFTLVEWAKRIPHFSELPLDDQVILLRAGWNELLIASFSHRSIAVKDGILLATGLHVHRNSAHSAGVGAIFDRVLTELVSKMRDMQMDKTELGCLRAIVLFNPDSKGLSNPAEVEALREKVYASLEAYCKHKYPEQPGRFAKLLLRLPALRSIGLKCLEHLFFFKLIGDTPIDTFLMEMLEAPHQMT
Experiment: Co-transfection assay (LXRE luciferase reporter), LXRβ
Type: cell-based
Settings: for EC50: CV-1 cells transfected with pCMX-hLXRβ and LXREx1-Tk-Luciferase, 20 hours incubation; for Emax: LXRβ co-transfection, relative to high control 1-(2,4-difluorobenzyl)-2-oxo-6-(4-phenoxyphenyl)-4-(trifluoromethyl)-1,2-dihydropyridine-3-carbonitrile, read-out: % Efficacy
How it was run: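 Luciferase output from an LXRE-Tk reporter measured after 20 h, 37 °C compound exposure of transiently transfected CV-1 cells expressing human LXRβ with endogenous RXR. EC50 fitted from 11-point half-log dose responses (mean of ≥2 runs); % efficacy versus maximal response of the reference agonist.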

EC50: 303 nM
Emax: 31%
SMILES: Cc1nc(-c2ccccc2C(F)(F)F)c(-c2cc(-c3cccc(S(C)(=O)=O)c3)ccc2-n2cc(C(F)(F)F)nc2C)o1 [Example 629, 2-methyl-5-(4-(2-methyl-4-(trifluoromethyl)-1H-imidazol-1-yl)-3′-(methylsulfonyl)-[1,1′-biphenyl]-3-yl)-4-(2-(trifluoromethyl)phenyl)oxazole]

EC50: 617 nM
Emax: 62%
SMILES: Cc1nc(C(F)(F)F)cn1-c1ccc(-c2ccc(CO)c(S(C)(=O)=O)c2)cc1-c1nc(CC(C)O)oc1-c1ccc(OC(F)(F)F)cc1 (stereo not shown) [Example 535, 1-(4-(4′-(hydroxymethyl)-4-(2-methyl-4-(trifluoromethyl)-1H-imidazol-1-yl)-3'-(methylsulfonyl)-[1,1′-biphenyl]-3-yl)-5-(4-(trifluoromethoxy)phenyl)oxazol-2-yl)propan-2-ol]

EC50: 35 nM
Emax: 62%
SMILES: Cc1nc(-c2cc(-c3cc(F)c(CO)c(S(C)(=O)=O)c3)ccc2-n2cc(C(F)(F)F)nc2C)c(-c2ccc(Cl)c(Cl)c2)o1 [Example 507, (3′-(5-(3,4-dichlorophenyl)-2-methyloxazol-4-yl)-3-fluoro-4′-(2-methyl-4-(trifluoromethyl)-1H-imidazol-1-yl)-5-(methylsulfonyl)biphenyl-4-yl)methanol]

EC50: 107 nM
Emax: 54%
SMILES: COCCc1nc(-c2cc(-c3cc(F)c(CO)c(S(C)(=O)=O)c3)ccc2-n2cc(C(F)(F)F)nc2C)c(-c2ccc(OC(F)(F)F)cc2)o1 [Example 527, (3-fluoro-3′-(2-(2-methoxyethyl)-5-(4-(trifluoromethoxy)phenyl)oxazol-4-yl)-4′-(2-methyl-4-(trifluoromethyl)-1H-imidazol-1-yl)-5-(meththsulfonyl)-[1,1′-biphenyl]-4-yl)methanol]

EC50: 260 nM
Emax: 89%
SMILES: COC(=O)c1ccc(-c2cnnn2-c2cc(-c3cccc(S(C)(=O)=O)c3)ccc2-n2cc(C(F)(F)F)nc2C)cc1 [Example 82, methyl 4-(1-{3′-(methylsulfonyl)-4-[2-methyl-4-(trifluoromethyl)-1H-imidazol-1-yl]biphenyl-3-yl}-1H-1,2,3-triazol-5-yl)benzoate]

EC50: 111 nM
Emax: 53%
SMILES: Cc1nc(C(F)(F)F)cn1-c1ccc(-c2cc(F)c(CO)c(S(C)(=O)=O)c2)cc1-n1nncc1C(C)c1ccc(Cl)cc1 (stereo not shown) [Example 109, (3′-{5-[1-(4-chlorophenyl)ethyl]-1H-1,2,3-triazol-1-yl}-3-fluoro-5-(methylsulfonyl)-4′-[2-methyl-4-(trifluoromethyl)-1H-imidazol-1-yl]biphenyl-4-yl)methanol]

Second part, the compound before the results:

SMILES: Cc1nc(C(F)(F)F)cn1-c1ccc(-c2cccc(S(C)(=O)=O)c2)cc1-c1nc(C(F)(F)F)cn1-c1ccc(Cl)cc1 [Example 644, 1-(4-chlorophenyl)-2-(4-(2-methyl-4-(trifluoromethyl)-1H-imidazol-1-yl)-3′-(methylsulfonyl)biphenyl-3-yl)-4-(trifluoromethyl)-1H-imidazole]
EC50: 408 nM
Emax: 37%

SMILES: Cc1nc(-c2cc(-c3cc(F)c(CO)c(S(C)(=O)=O)c3)ccc2-n2cc(C(F)(F)F)nc2C)c(-c2ccc(OC(F)(F)F)cc2)o1 [Example 373, [3-fluoro-5-(methylsulfonyl)-4′-[2-methyl-4-(trifluoromethyl)-1H-imidazol-1-yl]-3′-(2-methyl-5-{4-[(trifluoromethyl)oxy]phenyl}-1,3-oxazol-4-yl)biphenyl-4-yl]methanol]
EC50: 40 nM
Emax: 97%

SMILES: CS(=O)(=O)c1cccc(-c2ccc(-n3cnc(C(F)(F)F)c3)c(-n3nncc3-c3ccc(Cl)cc3)c2)c1 [Example 13, 5-(4-chlorophenyl)-1-{3′-(methylsulfonyl)-4-[4-(trifluoromethyl)-1H-imidazol-1-yl]biphenyl-3-yl}-1H-1,2,3-triazole]
EC50: 957 nM
Emax: 74%

SMILES: Cc1nc(C(F)(F)F)cn1-c1ccc(-c2cccc(S(C)(=O)=O)c2)cc1-n1nncc1Cc1ccc(OC(F)(F)F)cc1 [Example 118, 1-{3′-(methylsulfonyl)-4-[2-methyl-4-(trifluoromethyl)-1H-imidazol-1-yl]biphenyl-3-yl}-5-({4-[(trifluoromethyl)oxy]phen-yl}methyl)-1H-1,2,3-triazole]
EC50: 1040 nM
Emax: 61%

SMILES: Cc1nc(-c2cc(-c3cccc(S(C)(=O)=O)c3)ccc2-n2cc(C(F)(F)F)nc2C)c(-c2ccc(OC(F)F)c(Cl)c2)o1 [Example 398, 5-(3-chloro-4-(difluoromethoxy)phenyl)-2-methyl-4-(4-(2-methyl-4-(trifluoromethyl)-1H-imidazol-1-yl)-3′-(methylsulfonyl)biphenyl-3-yl)oxazole]
EC50: 55 nM
Emax: 79%

SMILES: Cc1nc(C(F)(F)F)cn1-c1ccc(-c2cccc(S(C)(=O)=O)c2)cc1-n1nncc1CCc1ccc(Cl)cc1 [Example 129, 5-[2-(4-chlorophenyl)ethyl]-1-{3′-(methylsulfonyl)-4-[2-methyl-4-(trifluoromethyl)-1H-imidazol-1-yl]biphenyl-3-yl}-1H-1,2,3-triazole]
EC50: 1500 nM
Emax: 65%

SMILES: Cc1nc(C(F)(F)F)cn1-c1ccc(-c2cc(Cl)c(CO)c(S(C)(=O)=O)c2)cc1-n1nncc1-c1ccc(Cl)cc1 [Example 70, {3-chloro-3′-[5-(4-chlorophenyl)-1H-1,2,3-triazol-1-yl]-5-(methylsulfony)-4′-[2-methyl-4-(trifluoromethyl)-1H-imidazol-1-yl]biphenyl-4-yl}methanol]
EC50: 361 nM
Emax: 40%

SMILES: Cc1nc(C(F)(F)F)cn1-c1ccc(-c2cccc(S(C)(=O)=O)c2)cc1-c1nc(CC(C)O)oc1-c1ccc(OC(F)(F)F)cc1 (stereo not shown) [Example 536, 1-(4-(4-(2-methyl-4-(trifluoromethyl)-1H-imidazol-1-yl)-3′-(methylsulfonyl)-[1,1′-biphenyl]-3-yl)-5-(4-(trifluoromethoxy)phenyl)oxazol-2-yl)propan-2-ol]
EC50: 280 nM
Emax: 82%

SMILES: CCS(=O)(=O)c1cccc(-c2ccc(-n3cc(C(F)F)nc3C)c(-c3cnnn3Cc3ccc(Cl)cc3)c2)c1 [Example 247, 1-(4-chlorobenzyl)-5-(4-(4-(difluoromethyl)-2-methyl-1H-imidazol-1-yl)-3′-(ethylsulfonyl)-[1,1′-biphenyl]-3-yl)-1H-1,2,3-triazole]
EC50: 315 nM
Emax: 99%

SMILES: Cc1nc(C(F)(F)F)cn1-c1ccc(-c2cccc(S(C)(=O)=O)c2)cc1-n1nncc1-c1ccc(OC(F)(F)F)c(F)c1 [Example 54, 5-{3-fluoro-4-[(trifluoromethyl)oxy]phenyl)-1-{3′-(methylsulfonyl)-4-[2-methyl-4-(trifluoromethyl)-1H-imidazol-1-yl]biphenyl-3-yl}-1H-1,2,3-triazole]
EC50: 148 nM
Emax: 84%

SMILES: CCC(F)(F)c1cn(-c2ccc(-c3cccc(S(=O)(=O)N(C)C)c3)cc2-n2nncc2-c2ccc(OC(F)(F)F)cc2)c(C)n1 [Example 182, 4′-[4-(1,1-difluoropropyl)-2-methyl-1H-imidazol-1-yl]-N,N-dimethyl-3′-(5-{4-[(trifluoromethyl)oxy]phenyl}-1H-1,2,3-triazol-1-yl)biphenyl-3-sulfonamide]
EC50: 494 nM
Emax: 78%

SMILES: Cc1nc(C(C)(F)F)cn1-c1ccc(-c2cccc(S(C)(=O)=O)c2)cc1-n1nncc1-c1ccc(Cl)cc1 [Example 176, 5-(4-chlorophenyl)-1-{4-[4-(1,1-difluoroethyl)-2-methyl-1H-imidazol-1-yl]-3′-(methylsulfonyl)biphenyl-3-yl}-1H-1,2,3-triazole]
EC50: 792 nM
Emax: 68%

SMILES: COc1ccc(-c2cnnn2-c2cc(-c3cccc(S(C)(=O)=O)c3)ccc2-n2cc(C(F)(F)F)nc2C)c(C)c1 [Example 24, 5-[2-methyl-4-(methyloxy)phenyl]-1-{3′-(methylsulfonyl)-4-[2-methyl-4-(trifluoromethyl)-1H-imidazol-1-yl]biphenyl-3-yl}-1H-1,2,3-triazole]
EC50: 512 nM
Emax: 90%

SMILES: Cc1ccc(C(C)c2cnnn2-c2cc(-c3cccc(S(C)(=O)=O)c3)ccc2-n2cc(C(F)(F)F)nc2C)cc1 (stereo not shown) [Example 111, 5-[1-(4-methylphenyl)ethyl]-1-{3′-(methylsulfonyl)-4-[2-methyl-4-(trifluoromethyl)-1H-imidazol-1-yl]biphenyl-3-yl}-1H-1,2,3-triazole]
EC50: 930 nM
Emax: 92%

From patent US9834542B2, “LXR modulators” (BRISTOL-MYERS SQUIBB COMPANY, priority 2013, dated 2017)
